Measured values from US20100316678A1, “COMBINATION METHODS AND COMPOSITIONS FOR TREATMENT OF NEUROPATHIC PAIN” (CNSBio Pty Ltd., priority 2007, published 2010).
Marks after values point to notes of the source that are not given here.

What was measured:
Type in all cases: in vivo, male Wistar rats
[1] = Open field activity monitor, test for sedation in normal rats; settings: for largest non-sedating dose: intraperitoneally, rats; for open field activity monitor, mean: male, Wistar, rat, in vivo, ip, 20 min
Method: (§1) Experiments were performed on male Wistar rats (wt 150-220g). Two series of experiments were performed in an observer blinded fashion with saline (negative) controls and GABAPentin (positive) controls. The investigations were in two stages: • 1. a range of doses of aprepitant (an example of a NK antagonist) given alone and in combination with flupirtine (an example of an inhibitor of neuronal excitation) were tested for sedating effects using the open field activity monitor.
Individual rats (several rats per treatment group) were placed in an open field activity monitor in which the movement of the rat could be monitored remotely by the frequency and number of interruption of infrared beams directed across the box in a grid. The activity in the monitor was measured for periods of 20 minutes in each rat. This was performed in groups of rats that received (1) control injection of saline, (2) GABAPentin 50 mg/kg as the maximum dose of that drug found previously not to be sedating (drug positive control) administered intraperitoneally, or (3) after pharmacological interventions that involve the administration of aprepitant and flupirtine given at a range of doses alone and in combination. If a rat was sedated by a drug or drug combination, the movements recorded were less. Since rats become habituated to the open field monitor, only one experiment was performed on each rat with this test.
These were the upper dose limits for subsequent experiments investigating the analgesic effects of these drugs administered together in combinations.

[2] = test system: streptozotocin-induced diabetic neuropathy; assay: Reversal of heat hyperalgesia (paw flick, Hargreaves) in streptozotocin-induced diabetic neuropathy
Method: Male Wistar rats (wt 50-70 g) were given streptozotocin 150 mg/kg intraperitoneally. […] The largest non-sedating doses of GABAPentin (50 mg/kg intraperitoneally) and aprepitant (6.25 mg/kg intraperitoneally) were assessed for possible analgesic effect by measurement of the percentage reversal of the hyperalgesia caused by the diabetes assessed by withdrawal from noxious heat applied to the hind paw.
Experiments were performed in an observer blinded fashion with parallel saline treated controls:

[3] = test system: streptozotocin-induced diabetic neuropathy; assay: Reversal of allodynia (von Frey hair) in streptozotocin-induced diabetic neuropathy; settings: each drug alone at non sedating doses, intraperitoneal
Method: as §1
Rats were injected intraperitoneally with streptozotocin (150 mg per kg total dose—Sapphire Bioscience) dissolved in sodium chloride 0.9%. The induction of diabetes was confirmed one week after injection of streptozotocin and weekly thereafter by measurement of tail vein blood glucose levels with Ames Glucofilm test strips and Ames Glucometer blood glucose meter. Only animals with blood glucose levels greater than or equal to 15 mM and maintained continuously for 5 weeks were deemed to be diabetic. […] At the end of five weeks these rats were assessed with the methods of measuring hyperalgesia (paw flick—Hargreaves method) and allodynia (withdrawal from von Frey Hair stimulation at normally non noxious intensity) to elucidate the antinociceptive effects of flupirtine and aprepitant given intraperitoneally alone and in combination (with saline and GABApentin for comparison).

Compound | largest non-sedating dose [1] [mg/kg] | reversal of hyperalgesia (statistics) ([2]; GABAPentin 50 mg/kg alone vs saline, P<0.01) | percentage reversal of the hyperalgesia, mean ([2]; GABAPentin 50 mg/kg intraperitoneally alone, noxious heat to hind paw, n=17) | open field activity monitor, mean ([1]; 6.25 mg/kg) | open field activity monitor, mean ([1]; 12.5 mg/kg) | open field activity monitor, mean ([1]; 25 mg/kg) | open field activity monitor, mean ([1]; 50 mg/kg) | open field activity monitor, mean ([1]; 100 mg/kg) | antinociception with respect to allodynia [3]
NCC1(CC(=O)O)CCCCC1 [GABAPentin] | 50 | statistically significant reversal of hyperalgesia | 27.67 |  |  |  |  |  | 
C[C@@H](O[C@H]1OCCN(Cc2n[nH]c(=O)[nH]2)[C@H]1c1ccc(F)cc1)c1cc(C(F)(F)F)cc(C(F)(F)F)c1 [aprepitant] | 6.25 |  |  | 869.0 | 915.0* | 964.6* | 976.6* | 1058.2 | Neither drug at non sedating doses causes significant antinociception
